We go through 1 compound from patent US12290651B2, “Devices and methods for the treatment of body surface disorders” (Verrica Pharmaceuticals Inc., priority 2017, dated 2025).

The data set can be described thus: Pharmacokinetic results from Phase II clinical trial: systemic exposure (plasma cantharidin) after topical application (Example 3). The class given is in vivo, human. The method, then: This example describes pharmacokinetic results from a Phase II clinical trial for the treatment of skin lesion resulting from Molluscum contagiosum. Patients received administrations of the cantharidin composition in Table 2 to Molluscum contagiosum lesions every 21 days for a maximum of 4 sessions or until complete clearance. Blood samples for systemic exposure evaluation were collected on Day 1, prior to the drug application, and 2 (±30 minutes), 6 (±1 hour) and 24 (±3 hours) hours post-application. The average age of the subjects was 7±3.5 years. The average body weight of the subjects was 58±34.6 lb. The average number of lesions per subject was 43.7±24.2.

Structures are written as SMILES. “And” between values parts separate entries of the source, which are not always exact repeats. Identical values can stand only once.

For the compound `C[C@@]12C(=O)OC(=O)[C@]1(C)[C@H]1CC[C@@H]2O1` [cantharidin], the “plasma concentration of cantharidin” value (all subjects, all times sampled (2, 6, 24 hours post-application)) is reported as “less than 3.3 ng/ml” and the “plasma concentration of cantharidin” value (subjects as young as 2 years old, having over 100 lesions, having genital lesions, with as many as 2.26 lesions per lb: below LLOQ) was < 2.5 ng/mL. Also, where the note is “one line per subject, topical cantharidin composition of Table 2 on molluscum lesions, blood at 2, 6 and 24 hours post-application on Day 1, LLOQ 2.5 ng/ml”, the “Exposure (plasma concentration of cantharidin)” value was <2.5 ng/ml (16×) and 3.3 ng/ml. The “subjects with plasma concentration of cantharidin above the lower limit of quantification (2.5 ng/ml)” value (seventeen subjects) is listed as “Only one of the seventeen subjects”.
